From the supplement of paper PMC10307832

Columns and labels:
Assay in all cases: relative viability (nuclei count vs DMSO), 5 days (fraction); higher = more cells survive
[1] = compound: COc1cc2ncn(-c3cc(OCc4ccccc4C(F)(F)F)c(C(N)=O)s3)c2cc1OC + CCNC(=O)c1noc(-c2cc(C(C)C)c(O)cc2O)c1-c1ccc(CN2CCOCC2)cc1 [Luminespib] (partner 0.01 µM)
How it was run: (§1)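 Lung cancer cell lines, seeded in 1536-well plates, were treated the following day by pin tool with a single drug or with five library-drug doses (not always all listed) in √10 steps on top of a fixed anchor-drug dose. Cells were fixed and nuclei stained in one step after 5 days, and nuclei were counted. Relative viability is the nuclei count for treated wells divided by that for vehicle wells, reported as medians of duplicate plates.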

[2] = compound: COc1cc2ncn(-c3cc(OCc4ccccc4C(F)(F)F)c(C(N)=O)s3)c2cc1OC + Nc1ncn([C@H]2C[C@H](O)[C@@H](CO)O2)c(=O)n1 [Decitabine] (partner 2 µM)
How it was run: as §1

[3] = compound: COc1cc2ncn(-c3cc(OCc4ccccc4C(F)(F)F)c(C(N)=O)s3)c2cc1OC + O=C(c1cc(Cc2n[nH]c(=O)c3ccccc23)ccc1F)N1CCN(C(=O)C2CC2)CC1 [Olaparib] (partner 8 µM)
How it was run: as §1

[4] = compound: COc1cc2ncn(-c3cc(OCc4ccccc4C(F)(F)F)c(C(N)=O)s3)c2cc1OC + CS(=O)(=O)CCNCc1ccc(-c2ccc3ncnc(Nc4ccc(OCc5cccc(F)c5)c(Cl)c4)c3c2)o1 [Lapatinib] (partner 2 µM)
How it was run: as §1

Cell Line	relative viability ([1]; first compound 0.05 µM)	relative viability ([1]; first compound 0.1581 µM)	relative viability ([1]; first compound 0.5 µM)	relative viability ([1]; first compound 1.581 µM)	relative viability ([1]; first compound 5 µM)	relative viability ([2]; first compound 0.05 µM)	relative viability ([2]; first compound 0.1581 µM)	relative viability ([2]; first compound 0.5 µM)	relative viability ([2]; first compound 1.581 µM)	relative viability ([2]; first compound 5 µM)	relative viability ([3]; first compound 0.05 µM)	relative viability ([3]; first compound 0.1581 µM)	relative viability ([3]; first compound 0.5 µM)	relative viability ([3]; first compound 1.581 µM)	relative viability ([3]; first compound 5 µM)	relative viability ([4]; first compound 0.05 µM)	relative viability ([4]; first compound 0.1581 µM)	relative viability ([4]; first compound 0.5 µM)	relative viability ([4]; first compound 1.581 µM)	relative viability ([4]; first compound 5 µM)
NCI-H441	0.312	0.378	0.216	0.224	0.202	0.229	0.243	0.18	0.137	0.164	0.349	0.34	0.242	0.175	0.146					
NCI-H1793	0.163	0.194	0.176	0.15	0.128	0.244	0.469	0.408	0.223	0.137	0.216	0.837	0.436	0.177	0.117	0.741	0.84	0.409	0.306	0.209
NCI-H23	0.211	0.209	0.213	0.206	0.22	0.296	0.281	0.176	0.191	0.151	0.187	0.239	0.166	0.128	0.0947	1.22	0.789	0.451	0.159	0.141
HARA	0.951	0.654	0.238	0.0482	0.0507	0.383		0.367	0.202	0.118	0.317		0.261	0.131	0.105	0.74	0.797	0.7	0.169	0.0753
NCI-H1792	0.509	0.397	0.339	0.208	0.185	0.503	0.65	0.411	0.0575	0.0384	0.152	0.273	0.457	0.0375	0.0338	0.935	0.834	0.868	0.24	0.0845
NCI-H1703											0.416	0.616	0.488	0.261	0.066	1.28	1.44	0.564	0.17	0.235
NCI-H2342	0.757	0.752	0.715	0.597	0.545	0.628	0.701	0.626	0.569	0.528	0.389	0.437	0.407	0.388	0.421					
CAL-12T	0.858	0.44	0.446	0.217	0.102						0.563	0.676	0.415	0.189	0.188	0.647	0.708	0.379	0.228	0.156
NCI-H838	0.301	0.283	0.128	0.136	0.114	0.401	0.426	0.328	0.169	0.135	0.491	0.679	0.365	0.0997	0.121	1.02	1.04	0.638	0.114	0.101
NCI-H2085	0.37	0.401	0.357	0.273	0.253	0.508	0.502	0.431	0.36	0.363	0.658	0.721	0.481	0.367	0.306	0.824	0.748	0.527	0.347	0.322
NCI-H1395	0.753	0.814	0.579	0.321	0.359	0.736	0.753	0.596	0.373	0.342	0.441	0.476	0.414	0.326	0.314	0.928	1.37	0.818	0.354	0.41
NCI-H1648						0.473	0.602	0.345	0.235	0.225	0.74	0.596	0.366	0.242	0.261					
NCI-H460	0.0239	0.0323	0.0299	0.0165	0.0166	0.495	0.15	0.257	0.0216	0.0165	0.468	0.357	0.0734	0.0365	0.0215	1.03	0.592	0.486	0.0094	0.0099
A549						0.253	0.237	0.212	0.0645	0.0614	0.344	0.215	0.149	0.0485	0.0961	0.984	0.862	0.0918	0.0675	0.065
IA-LM											0.75	0.602	0.123	0.0768	0.0783	0.617	0.49	0.0998	0.083	0.0955
EKVX	1	1.01	0.64		0.578	0.324	0.381	0.273	0.175	0.204	0.888	0.934	0.631	0.206	0.222	0.176	0.265	0.206	0.165	0.178
